The source made the active and inactive calls. No cut-off for these calls is given here.
How the values were obtained:
[1] = biological target: T1, Myeloperoxidase (Homo sapiens) (UniProt P05164); assay: Inhibition of recombinant MPO (unknown origin) assessed as reduction in TMB peroxidation by measuring residual activity at 5 uM in absence of H2O2 incubated for 5 mins followed by 100 fold enzyme dilution relative to control
T1 sequence (whole entry): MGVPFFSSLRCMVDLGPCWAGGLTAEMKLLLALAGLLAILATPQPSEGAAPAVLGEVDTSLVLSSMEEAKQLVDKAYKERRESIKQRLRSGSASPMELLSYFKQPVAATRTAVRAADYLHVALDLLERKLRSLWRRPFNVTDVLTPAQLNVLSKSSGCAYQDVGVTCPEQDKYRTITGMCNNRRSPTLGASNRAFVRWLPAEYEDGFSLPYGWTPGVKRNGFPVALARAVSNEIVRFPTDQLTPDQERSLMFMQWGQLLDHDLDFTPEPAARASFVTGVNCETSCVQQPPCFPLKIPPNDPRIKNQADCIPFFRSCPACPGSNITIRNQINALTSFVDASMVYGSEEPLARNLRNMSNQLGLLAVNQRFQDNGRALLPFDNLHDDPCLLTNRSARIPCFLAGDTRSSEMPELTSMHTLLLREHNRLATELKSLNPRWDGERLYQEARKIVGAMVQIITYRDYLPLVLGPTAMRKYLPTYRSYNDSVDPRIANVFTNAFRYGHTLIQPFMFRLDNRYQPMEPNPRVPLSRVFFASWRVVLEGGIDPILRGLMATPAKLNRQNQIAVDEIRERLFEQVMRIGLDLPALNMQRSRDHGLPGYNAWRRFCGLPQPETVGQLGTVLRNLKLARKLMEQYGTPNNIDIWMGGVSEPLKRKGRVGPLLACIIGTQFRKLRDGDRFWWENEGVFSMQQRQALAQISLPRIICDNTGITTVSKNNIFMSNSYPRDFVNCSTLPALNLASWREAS

Neutrophil [2] = assay: Induction of apoptosis in human neutrophils assessed as compound concentration required for effect after 30 mins by JC1 staining based flow cytometry; type: cell-based; conditions: 0.5 h
Myeloperoxidase [3] = biological target: T2, Myeloperoxidase (Homo sapiens, UniProt P05164); assay: Inhibition of recombinant MPO (unknown origin) assessed as reduction in LDL oxidation in presence of H2O2 and HCl after 5 mins by ELISA
T2 sequence (P05164 whole entry): T1 sequence (whole entry)

Lactoperoxidase = Lactoperoxidase (Bos taurus, UniProt P80025); assay: Inhibition of bovine milk LPO assessed as reduction in NaOSCN production in presence of H2O2/NaSCN after 5 mins
Myeloperoxidase [4] = biological target: T2, Myeloperoxidase; assay: Inhibition of recombinant MPO (unknown origin) assessed as reduction in taurine chloramine production preincubated with enzyme and taurine followed by H2O2 addition measured after 5 mins
Myeloperoxidase [5] = biological target: T2, Myeloperoxidase; assay: Inhibition of MPO in human neutrophils assessed as reduction in HOCl production preincubated for 30 mins followed by H2O2 addition by APF staining based flow cytometry
[6] = biological target: T1, Myeloperoxidase (Homo sapiens); assay: Inhibition of recombinant MPO (unknown origin) assessed as reduction in TMB peroxidation by measuring residual activity at 5 uM in presence of H2O2 and NaCl incubated for 5 mins followed by 100 fold enzyme dilution relative to control
[7] = biological target: T1, Myeloperoxidase (Homo sapiens); assay: Inhibition of recombinant MPO (unknown origin) assessed as reduction in TMB peroxidation by measuring residual activity at 5 uM in presence of H2O2 incubated for 5 mins followed by 100 fold enzyme dilution relative to control
Neutrophil [8] = assay: Induction of apoptosis in human neutrophils up to 1 mM after 30 mins by JC1 staining based flow cytometry; type: cell-based; conditions: 0.5 h
NHDF = assay: Cytotoxicity against NHDF assessed as reduction in cell viability after 72 hrs by MTT assay; type: cell-based; conditions: Homo sapiens
Plasma = assay: Plasma concentration in po dosed human; type: ADME, organism-based; conditions: in vivo
[9] = Selectivity ratio of IC50 for bovine milk LPO to IC50 for recombinant MPO (unknown origin)
[10] = biological target: T1, Myeloperoxidase (Homo sapiens); assay: Inhibition of MPO (unknown origin) assessed as apparent bi-molecular rate constant for PorFe(4)=O radical reduction by stopped-flow spectroscopic analysis
[11] = biological target: T1, Myeloperoxidase (Homo sapiens); assay: Inhibition of recombinant MPO (unknown origin) assessed as reduction in taurine chloramine production at 5 uM preincubated with enzyme and taurine followed by H2O2 addition measured after 5 mins relative to control
[12] = biological target: T1, Myeloperoxidase (Homo sapiens); assay: Inhibition of MPO (unknown origin) assessed as apparent bi-molecular rate constant for PorFe(4)-OH reduction by stopped-flow spectroscopic analysis
[13] = biological target: T1, Myeloperoxidase (Homo sapiens); conditions: 1 to 5 uM
Description: Inhibition of MPO in human neutrophils assessed as reduction in HOCl production at 1 to 5 uM preincubated for 30 mins followed by H2O2 addition by APF staining based flow cytometry relative to control

Neutrophil [14] = assay: Induction of apoptosis in human neutrophils assessed as increase in necrotic cells at >= 50 uM after 30 mins by JC1 staining based flow cytometry; type: cell-based; conditions: 0.5 h
[15] = biological target: T1, Myeloperoxidase (Homo sapiens); conditions: 5 uM
Description: Irreversible inhibition of recombinant MPO (unknown origin) assessed as reduction in guaiacol peroxidation by measuring enzyme activity recovery at 5 uM incubated for 20 mins followed by 200 fold dilution measured for 10 mins

`Fc1ccc2[nH]c([C@@H]3CCN(CC4NC=CN4)C3)nc2c1` gave an Activity [1] of 83%, an Activity (Neutrophil [2]) of over 50 µM and an IC50 (Myeloperoxidase [3]) of 120 nM. The IC50 (Lactoperoxidase) was over 5000 nM, the IC50 (Myeloperoxidase [4]) was 50 nM and the IC50 (Myeloperoxidase [5]) was 314000 nM. The Activity [6] was 84%, the Activity [7] was 84% and the Activity (Neutrophil [8]) was “Non-Toxic”. The IC50 (NHDF) was over 50000 nM.
Molecule `CCN(CC)CCNC(=O)c1cc(Cl)c(N)cc1OC` [METOCLOPRAMIDE] has an IC50 (Myeloperoxidase [3]) of over 5000 nM, an IC50 (Lactoperoxidase) of over 5000 nM and an IC50 (Myeloperoxidase [4]) of 350 to 1000 nM. For the same molecule, the concentration (Plasma) was 200 to 400 nM and the IC50 (NHDF) was over 50000 nM.
For `COc1cc(N[C@H](C)CCCN)c2ncccc2c1`, the Activity [1] was 86%, the Ratio IC50 [9] was 3 and the IC50 (Lactoperoxidase) was 800 nM. It also gave an IC50 (Myeloperoxidase [4]) of 300 nM, an Activity [6] of 86% and an Activity [7] of 91%. It also gave an IC50 (NHDF) of over 50000 nM.
Molecule `Cc1nc(NC(=N)N)nc2ccccc12` has an IC50 (Myeloperoxidase [4]) of 900 nM.
In the case of `Cc1nc(N=C(N)N)nc2ccc(F)cc12`, the IC50 (Myeloperoxidase [4]) is reported as 145 nM.
`Cc1nc(N=C(N)N)nc2ccc(Br)cc12` gave an IC50 (Myeloperoxidase [4]) of 756 nM.
In the case of `NCCCCc1c[nH]c2ccc(F)cc12`, the IC50 (Myeloperoxidase [4]) is reported as 8 nM.
`CCN1CCC[C@H]1CNC(=O)c1cc(S(N)(=O)=O)ccc1OC` [LEVOSULPIRIDE] gave an IC50 (Myeloperoxidase [4]) of 7680 nM.
`NNc1nncc2ccccc12` [HYDRALAZINE] showed an Activity [1] of 76%, a Ratio IC50 [9] of 1.3 and a Kapp [10] of 7.1 ×10⁶ /M/s. For the same molecule, the IC50 (Myeloperoxidase [3]) was 2360 nM, the IC50 (Lactoperoxidase) was 1200 nM and the Activity [6] was 6%. It also gave an Activity [7] of 9% and an IC50 (NHDF) of over 50000 nM.
`CN(C)CCCN1c2ccccc2Sc2ccc(C(F)(F)F)cc21` showed an inhibition [11] of 12.3%.
Molecule `c1c2c(cc3c4n(nc13)CCS4)OCO2` has an IC50 (Myeloperoxidase [4]) of 85 nM.
`O=c1cc(-c2ccc(O)cc2)oc2cc(O)ccc12` gave an IC50 (Myeloperoxidase [4]) of 5790 nM.
For `O=C(N/N=C/c1ccc([N+](=O)[O-])o1)c1ccc(O)cc1` [NIFUROXAZIDE], the IC50 (Myeloperoxidase [4]) was over 5000 nM.
In the case of `O=c1c(O)c(-c2ccc(O)cc2)oc2cc(O)cc(O)c12` [KAEMPFEROL], the Activity [1] is reported as 78%, the IC50 (Myeloperoxidase [4]) is reported as 2240 nM and the Activity [6] is reported as 84%. It also gave an Activity [7] of 81%.
With `N#CC1=C(N)Oc2cc(O)ccc2C1c1cccc(C(F)(F)F)c1` (stereo not drawn) the IC50 (Myeloperoxidase [4]) was 10100 nM.
In the case of `C[C@H](COc1ccccc1)N[C@@H](C)[C@@H](O)c1ccc(O)cc1`, the inhibition [11] is reported as 5.32%.
Molecule `Fc1ccc([C@@H]2CCNC[C@H]2COc2ccc3c(c2)OCO3)cc1` [PAROXETINE] has an IC50 (Myeloperoxidase [4]) of 20 nM.
With `O=c1c(O)c(-c2ccc(O)c(O)c2)oc2cc(O)cc(O)c12` [QUERCETIN] the Activity [1] was 72%, the Ratio IC50 [9] was 5 and the IC50 (Myeloperoxidase [3]) was 3100 nM. The IC50 (Lactoperoxidase) was 6100 nM, the IC50 (Myeloperoxidase [4]) was 1150 nM and the Activity [6] was 79%. It also gave an Activity [7] of 78% and an IC50 (NHDF) of over 50000 nM.
In the case of `O[C@@H]1CN[C@H](c2nc(Cc3ccc(F)cc3Cl)no2)C1`, the IC50 (Myeloperoxidase [4]) is reported as 4680 nM.
For `Cc1nc(NC(=N)N)nc2cc(Br)ccc12`, the IC50 (Myeloperoxidase [4]) was 106 nM.
Work on `C[C@H]1CN(c2cc3c(cc2F)c(=O)c(C(=O)O)cn3C2CC2)CCN1` yielded an IC50 (Myeloperoxidase [4]) of over 5000 nM.
For `CCn1cc(C(=O)O)c(=O)c2cc(F)c(N3CCN[C@@H](C)C3)c(F)c21`, the Kapp [10] was 3.1 ×10⁴ /M/s, the IC50 (Myeloperoxidase [4]) was over 5000 nM and the inhibition [11] was “inactive”. The Kapp [12] was 1.2 ×10³ /M/s.
With `Nc1cc(=O)[nH]c(CSc2ccc(F)c3ccccc23)n1` the inhibition [11] was 37.2%.
In the case of `O=c1cc(-c2ccc(O)cc2)oc2cc(O)cc(O)c12` [APIGENIN], the Ratio IC50 [9] is reported as 5.6, the IC50 (Lactoperoxidase) is reported as 17800 nM and the IC50 (Myeloperoxidase [4]) is reported as 3800 nM.
For `Cc1nc(N=C(N)N)nc2cc(Cl)ccc12`, the IC50 (Myeloperoxidase [4]) was 96 nM.
`Fc1ccc2oc([C@H]3CCNC3)nc2c1` showed an IC50 (Myeloperoxidase [4]) of 1740 nM and an IC50 (NHDF) of over 50000 nM.
Molecule `Cc1cccc(Nc2ccccc2C(=O)O)c1C` [MEFENAMIC ACID] has an Activity [1] of 87%, an IC50 (Myeloperoxidase [3]) of 2210 nM and an IC50 (Myeloperoxidase [4]) of 980 nM. The Activity [6] was 87% and the Activity [7] was 82%.
Molecule `CSc1ccc2c(c1)N(CC[C@H]1CCCCN1C)c1ccccc1S2` has a Kapp [10] of 5.2 ×10⁶ /M/s, an IC50 (Myeloperoxidase [4]) of over 5000 nM and an inhibition [11] of 24.2%. It also gave a Kapp [12] of 1.7 ×10⁴ /M/s.
`Cc1ccc(-c2cc(C(F)(F)F)nn2-c2ccc(S(N)(=O)=O)cc2)cc1` showed an inhibition [11] of 11%.
Work on `Cc1nc(N=C(N)N)nc2cc(F)ccc12` yielded a Ratio IC50 [9] of 30, an IC50 (Lactoperoxidase) of 3900 nM and an IC50 (Myeloperoxidase [4]) of 40 nM.
With `CC(C)NCC(=O)c1nc2cc(F)ccc2[nH]1` the Activity [1] was 79%, the IC50 (Lactoperoxidase) was over 5000 nM and the IC50 (Myeloperoxidase [4]) was 130 nM. It also gave an Activity [6] of 81%, an Activity [7] of 87% and an IC50 (NHDF) of over 50000 nM.
In the case of `COc1ccc2c(C)nc(NC(=N)N)nc2c1`, the Activity [1] is reported as 84%, the inhibition [13] is reported as 67 to 71% and the Ratio IC50 [9] is reported as 73. For the same molecule, the Activity (Neutrophil [2]) was over 50 µM, the Kapp [10] was 1.9 ×10⁶ /M/s and the IC50 (Myeloperoxidase [3]) was 90 nM. The IC50 (Lactoperoxidase) was 3200 nM, the IC50 (Myeloperoxidase [4]) was 44 nM and the Activity (Neutrophil [14]) was “Toxic”. For the same molecule, the IC50 (Myeloperoxidase [5]) was 93100 nM, the Activity [6] was 5% and the Activity [7] was 4%. For the same molecule, the Activity (Neutrophil [8]) was “Non-Toxic”, the inhibition [15] was “Active” and the IC50 (NHDF) was 17000 nM.
For `Cc1nc(NC(=N)N)nc2ccc(Cl)cc12`, the IC50 (Myeloperoxidase [4]) was 630 nM.

— ChEMBL document CHEMBL4011652, “Discovery of Novel Potent Reversible and Irreversible Myeloperoxidase Inhibitors Using Virtual Screening Procedure” (J Med Chem, 2017)
